In ChEMBL document CHEMBL1127065, “Nucleoside conjugates. 13. Synthesis and antitumor activity of 1-beta-D-arabinofuranosylcytosine conjugates of thioether lipids with improved water solubility” (J Med Chem, 1993):
Values joined by “and” are separate entries in the source; they are usually repeats but may differ in a detail not shown here. Equal entries are not always repeated.

Assays:
Mus musculus [1] = test: Number of survivors in mice bearing ip-implanted L1210 lymphoid leukemia after 45 day against Ip-implanted L1210 lymphoid leukemia mice; type: functional
Mus musculus [2] = test: Number of survivors in mice bearing ip-implanted L1210 lymphoid leukemia after 45 day; type: functional
Mus musculus [3] = test: Change in weight in mice bearing ip-implanted L1210 lymphoid leukemia on day 8 at 300 mg/kg or 292 umol/kg per day; type: functional
[4] = Water solubility was determined by UV absorption at 273 nm; type: ADME
Mus musculus [5] = test: Median T/C calculated based on survivors at 150 mg/kg (146 umol) per day against Ip-implanted L1210 lymphoid leukemia mice; type: functional
Mus musculus [6] = test: Median T/C calculated based on survivors at 300 mg/kg (292 umol) per day against Ip-implanted L1210 lymphoid leukemia mice; type: functional
Mus musculus [7] = test: Percent increase in life span at 300 mg/kg (292 umol) per day; type: functional
Mus musculus [8] = test: Percent increase in life span at 300 mg/kg (318 umol) per day; type: functional
Mus musculus [9] = test: Median T/C calculated based on survivors at 300 mg/kg (318 umol) per day against Ip-implanted L1210 lymphoid leukemia mice; type: functional
Mus musculus [10] = test: Change in weight in mice bearing ip-implanted L1210 lymphoid leukemia on day 8 at 300 mg/kg or 309 umol/kg per day; type: functional
Mus musculus [11] = test: Percent increase in life span at 400 mg/kg (411 umol) per day; type: functional
Mus musculus [12] = test: Median T/C calculated based on survivors at 400 mg/kg (411 umol) per day against Ip-implanted L1210 lymphoid leukemia mice; type: functional
Mus musculus [13] = test: Percent increase in life span at 150 mg/kg (154 umol) per day; type: functional
Mus musculus [14] = test: Median T/C calculated based on survivors at 150 mg/kg (154 umol) per day against Ip-implanted L1210 lymphoid leukemia mice; type: functional
Mus musculus [15] = test: Median T/C calculated based on survivors at 400 mg/kg (437 umol) per day against Ip-implanted L1210 lymphoid leukemia mice; type: functional
Mus musculus [16] = test: Percent increase in life span at 400 mg/kg (437 umol) per day; type: functional
Mus musculus [17] = test: Median T/C calculated based on survivors at 300 mg/kg (309 umol) per day against Ip-implanted L1210 lymphoid leukemia mice; type: functional
Mus musculus [18] = test: Percent increase in life span at 300 mg/kg (309 umol) per day; type: functional
Mus musculus [19] = test: Median T/C calculated based on survivors at 400 mg/kg (400 umol) per day against Ip-implanted L1210 lymphoid leukemia mice; type: functional
Mus musculus [20] = test: Percent increase in life span at 400 mg/kg (400 umol) per day; type: functional
Mus musculus [21] = test: Percent increase in life span at 150 mg/kg (150 umol) per day; type: functional
Mus musculus [22] = test: Median T/C calculated based on survivors at 150 mg/kg (150 umol) per day against Ip-implanted L1210 lymphoid leukemia mice; type: functional
Mus musculus [23] = test: Median T/C calculated based on survivors at 300 mg/kg (328 umol) per day against Ip-implanted L1210 lymphoid leukemia mice; type: functional
Mus musculus [24] = test: Median T/C calculated based on survivors at 200 mg/kg (218 umol) per day; type: functional
Mus musculus [25] = test: Percent increase in life span at 200 mg/kg (218 umol) per day; type: functional
Mus musculus [26] = test: Percent increase in life span at 300 mg/kg (328 umol) per day; type: functional
Mus musculus [27] = test: Median T/C calculated based on survivors at 300 mg/kg (300 umol) per day against Ip-implanted L1210 lymphoid leukemia mice; type: functional
Mus musculus [28] = test: Percent increase in life span at 300 mg/kg (300 umol) per day; type: functional
Mus musculus [29] = test: Change in weight in mice bearing ip-implanted L1210 lymphoid leukemia on day 8 at 71 mg/kg or 292 umol/kg per day; type: functional
Mus musculus [30] = test: Percent increase in life span at 200 mg/kg (822 umol) per day; type: functional
Mus musculus [31] = test: Percent increase in life span at 71 mg/kg (292 umol) per day; type: functional
Mus musculus [32] = test: Percent increase in life span at 100 mg/kg (411 umol) per day; type: functional
Mus musculus [33] = test: Change in weight in mice bearing ip-implanted L1210 lymphoid leukemia on day 8 at 100 mg/kg or 411 umol/kg per day; type: functional
Mus musculus [34] = test: Median T/C calculated based on survivors at 100 mg/kg (411 umol) per day against Ip-implanted L1210 lymphoid leukemia mice; type: functional
Mus musculus [35] = test: Median T/C calculated based on survivors at 200 mg/kg (822 umol) per day against Ip-implanted L1210 lymphoid leukemia mice; type: functional
Mus musculus [36] = test: Change in weight in mice bearing ip-implanted L1210 lymphoid leukemia on day 8 at 200 mg/kg or 822 umol/kg per day; type: functional
Mus musculus [37] = test: Median T/C calculated based on survivors at 71 mg/kg (292 umol) per day against Ip-implanted L1210 lymphoid leukemia mice; type: functional
Mus musculus [38] = test: Median T/C calculated based on survivors at 400 mg/kg (389 umol) per day; type: functional
Mus musculus [39] = test: Percent increase in life span at 400 mg/kg (389 umol) per day against Ip-implanted L1210 lymphoid leukemia mice; type: functional
Mus musculus [40] = test: Median T/C calculated based on survivors at 150 mg/kg (164 umol) per day; type: functional
Mus musculus [41] = test: Percent increase in life span at 150 mg/kg (164 umol) per day; type: functional

`CCCCCCCCCCCCCCCCCCSCC(COP(=O)([O-])OP(=O)([O-])OC[C@H]1OC(n2ccc(N)nc2=O)[C@@H](O)[C@@H]1O)OC(=O)CCCCCCCCCCCCCCC.[Na+].[Na+]` (some centres not stated) [CYTOROS] showed a Survivors (Mus musculus [1]) of 4, a Survivors (Mus musculus [2]) of 1 and a Weight change (Mus musculus [3]) of -2.4 g mouse-1. The solubility [4] was 0.2 mM, the “Median T/C” value (Mus musculus [5]) was 27.5 and the “Median T/C” value (Mus musculus [6]) was over 45. For the same molecule, the ILS (Mus musculus [7]) was >543% and >293%.
`CCCCCCCCCCCCCCSCC(COP(=O)([O-])OP(=O)([O-])OC[C@H]1OC(n2ccc(N)nc2=O)[C@@H](O)[C@@H]1O)OC(=O)CCCCCCCCCCCCC.[Na+].[Na+]` (some centres not stated) showed an ILS at 300 mg/kg (Mus musculus [8]) of 243%, a Survivors (Mus musculus [2]) of 2 and a solubility [4] of over 60 mM. The “Median T/C” value (Mus musculus [9]) was 24.
For `CCCCCCCCCCCCCCCC(=O)OC(COP(=O)([O-])OP(=O)([O-])OC[C@H]1OC(n2ccc(N)nc2=O)[C@@H](O)[C@@H]1O)CSCCCCCCCCCCCCCC.[Na+].[Na+]` (some centres not stated), the Weight change (Mus musculus [10]) was 0.5 g mouse-1, the ILS (Mus musculus [11]) was >421% and 393% and the Survivors (Mus musculus [2]) was 3 and 1 and 2. The solubility [4] was 1.5 mM, the “Median T/C” value (Mus musculus [12]) was >36.5 and 34.5 and the ILS at 150 mg/kg (Mus musculus [13]) was 321%. For the same molecule, the “Median T/C” value (Mus musculus [14]) was 29.5.
For `CCCCCCCCCCCCCCSCC(COP(=O)([O-])OP(=O)([O-])OC[C@H]1OC(n2ccc(N)nc2=O)[C@@H](O)[C@@H]1O)OC(=O)CCCCCCCCCCC.[Na+].[Na+]` (some centres not stated), the Survivors (Mus musculus [2]) was 0, the solubility [4] was over 50 mM and the “Median T/C” value (Mus musculus [15]) was 16. The ILS at 400 mg/kg (Mus musculus [16]) was 129%.
For `CCCCCCCCCCCCCCCCSCC(COP(=O)([O-])OP(=O)([O-])OC[C@H]1OC(n2ccc(N)nc2=O)[C@@H](O)[C@@H]1O)OC(=O)CCCCCCCCCCCCC.[Na+].[Na+]` (some centres not stated), the Weight change (Mus musculus [10]) was -1.8 g mouse-1, the “Median T/C” value (Mus musculus [17]) was 34 and the Survivors (Mus musculus [2]) was 2. It also gave a solubility [4] of over 53 mM and an ILS at 300 mg/kg (Mus musculus [18]) of 386%.
In the case of `CCCCCCCCCCCCCCCCCCSCC(COP(=O)([O-])OP(=O)([O-])OC[C@H]1OC(n2ccc(N)nc2=O)[C@@H](O)[C@@H]1O)OC(=O)CCCCCCCCCCCCC.[Na+].[Na+]` (some centres not stated), the “Median T/C” value (Mus musculus [19]) is reported as 25, the ILS at 400 mg/kg (Mus musculus [20]) is reported as 213% and the ILS at 150 mg/kg (Mus musculus [21]) is reported as over 464%. For the same molecule, the Survivors (Mus musculus [2]) was 1 and 3, the solubility [4] was over 62 mM and the “Median T/C” value (Mus musculus [22]) was 39.5.
For `CCCCCCCCCCCCCC(=O)OC(COP(=O)([O-])OP(=O)([O-])OC[C@H]1OC(n2ccc(N)nc2=O)[C@@H](O)[C@@H]1O)CSCCCCCCCCCCCC.[Na+].[Na+]` (some centres not stated), the “Median T/C” value (Mus musculus [23]) was 14.5, the “Median T/C” value (Mus musculus [24]) was over 45 and the solubility [4] was over 68 mM. The ILS at 200 mg/kg (Mus musculus [25]) was 463% and the ILS at 300 mg/kg (Mus musculus [26]) was 81%.
In the case of `CCCCCCCCCCCCCCCCSCC(COP(=O)([O-])OP(=O)([O-])OC[C@H]1OC(n2ccc(N)nc2=O)[C@@H](O)[C@@H]1O)OC(=O)CCCCCCCCCCCCCCC.[Na+].[Na+]` (some centres not stated), the “Median T/C” value (Mus musculus [27]) is reported as 37.5, the ILS at 300 mg/kg (Mus musculus [28]) is reported as over 436% and the Survivors (Mus musculus [2]) is reported as 2. It also gave a solubility [4] of 0.2 mM.
`Nc1ccn([C@@H]2O[C@H](CO)[C@@H](O)[C@@H]2O)c(=O)n1` [CYTARABINE] gave a Weight change (Mus musculus [29]) of -3.8 g mouse-1, an ILS at 200 mg/kg (Mus musculus [30]) of 100% and an ILS at 71 mg/kg (Mus musculus [31]) of 23%. It also gave a Survivors (Mus musculus [2]) of 0, an ILS at 100 mg/kg (Mus musculus [32]) of 129% and a Weight change (Mus musculus [33]) of -3.1 g mouse-1. For the same molecule, the “Median T/C” value (Mus musculus [34]) was 16, the “Median T/C” value (Mus musculus [35]) was 14 and the Weight change (Mus musculus [36]) was -6.1 g mouse-1. The “Median T/C” value (Mus musculus [37]) was 8.
In the case of `CCCCCCCCCCCCCCCCCC(=O)OC(COP(=O)([O-])OP(=O)([O-])OC[C@H]1OC(n2ccc(N)nc2=O)[C@@H](O)[C@@H]1O)CSCCCCCCCCCCCCCCCC.[Na+].[Na+]` (some centres not stated), the Survivors (Mus musculus [2]) is reported as 3, the solubility [4] is reported as 0.2 mM and the “Median T/C” value (Mus musculus [38]) is reported as over 43.5. For the same molecule, the ILS at 400 mg/kg (Mus musculus [39]) was over 521%.
With `CCCCCCCCCCCCCCCCSCC(COP(=O)([O-])OP(=O)([O-])OC[C@H]1OC(n2ccc(N)nc2=O)[C@@H](O)[C@@H]1O)OC(=O)CCCCCCCCCCC.[Na+].[Na+]` (some centres not stated) the ILS at 300 mg/kg (Mus musculus [8]) was 178%, the Survivors (Mus musculus [2]) was 2 and the solubility [4] was over 64 mM. For the same molecule, the “Median T/C” value (Mus musculus [9]) was 19.5.
For `CCCCCCCCCCCCCCCC(=O)OC(COP(=O)([O-])OP(=O)([O-])OC[C@H]1OC(n2ccc(N)nc2=O)[C@@H](O)[C@@H]1O)CSCCCCCCCCCC.[Na+].[Na+]` (some centres not stated), the “Median T/C” value (Mus musculus [40]) was 21, the Survivors (Mus musculus [2]) was 0 and the solubility [4] was over 58 mM. For the same molecule, the “Median T/C” value (Mus musculus [15]) was 15, the ILS at 400 mg/kg (Mus musculus [16]) was 114% and the ILS at 150 mg/kg (Mus musculus [41]) was 200%.
In the case of `CCCCCCCCCCCCCCCCCCSCC(COP(=O)([O-])OP(=O)([O-])OC[C@H]1OC(n2ccc(N)nc2=O)[C@@H](O)[C@@H]1O)OC(=O)CCCCCCCCCCC.[Na+].[Na+]` (some centres not stated), the “Median T/C” value (Mus musculus [17]) is reported as 25, the Survivors (Mus musculus [2]) is reported as 1 and 2 and the solubility [4] is reported as over 54 mM. The ILS at 300 mg/kg (Mus musculus [18]) was 213%, the ILS at 150 mg/kg (Mus musculus [13]) was 371% and the “Median T/C” value (Mus musculus [14]) was 33.
